Test results: PMC3130785, “Small Compound 6-O-Angeloylplenolin Induces Mitotic Arrest and Exhibits Therapeutic Potentials in Multiple Myeloma” (PLoS ONE, 2011)

Assays:
Assay type in all cases: cell-based, human
MM.1R cells = assay: MTT assay, Dex with or without 6-OAP; settings: 48 h, 6-OAP 7.5 µM
Experimental: U266, RPMI 8226 cells (1×10^4), primary CD138+ cells, PBMCs (5×10^4), and BMSCs (1×10^4) were cultured in 96-well dishes and incubated without or with 6-OAP at indicated concentration for 48 h. MM.1S and MM.1R cells (2×10^4) were seeded into 96-well dishes and pre-cultured for 24 h, then treated with 6-OAP for 48 h. Cell proliferation was determined by MTT assay. Cell viability was estimated by trypan blue dye exclusion.
Figure 4 6-OAP enhances cytotoxicity of Dox, Dex and BOR to MM cells. (A through C) MM.1S cells were treated for 48 h with Dox (A), Dex (B) or BOR (C) in the presence or absence of 6-OAP at 5 µM. MTT assay was used to test the proliferation of MM.1S cells. (D) MM.1R cells were treated for 48 h with Dex in the presence or absence of 6-OAP at 7.5 µM. MTT assay was used to test the proliferation of MM.1R cells. *p<.001,** p<.05. (E) MM.1S cells were cultured with control media (con), 6-OAP (O, 5 µM), BOR (B, 3 nM), or 6-OAP (5 µM) plus BOR (3 nM) (OB) for indicated time points. Cells were then lysed and subjected to Western blotting using indicated antibodies. CF, cleavage fragment.

Mad2 bound Cdc20 = assay: Immunoprecipitation and Western blotting; settings: U266 and MM.1S cells; 24 h
Experimental: (§1) Cell pellets were lysed in RIPA buffer containing 50 mM Tris pH 8.0, 150 mM NaCl, 0.1% SDS, 0.5% deoxycholate, 1% NP-40, 1 mM DTT, 1 mM NaF, 1 mM sodium vanadate, and protease inhibitors cocktail (Sigma). For immunoprecipitations, cells were lysed on ice for 15 minutes in RIPA buffer. Lysates were centrifuged. The supernatant was incubated with indicated antibodies overnight, after which protein A/G Plus beads (Santa Cruz Biotechnology) were added and incubated for 3 h. The beads were washed 4 times in RIPA buffer. Then the beads were resuspended in 1× sample buffer and boiled for 3 min. Protein extracts were quantitated and loaded on 8% to 12% sodium dodecyl sulfate polyacrylamide gel, electrophoresed, and transferred to a nitrocellulose membrane (Whatman). The membrane was incubated with primary antibody, washed, and incubated with horseradish peroxidase (HRP)–conjugated secondary antibody (Pierce). Detection was performed by using a chemiluminescent western detection kit (Cell Signaling). […]
(§2) Figure 3 6-OAP accumulates cyclin B1 which is required for mitotic arrest. […] After co-incubation with 6-OAP for 18 h, the cells were then harvested and detected by Leica DMI 400B microscope (D), or analyzed by flow cytometry for the cell cycle distribution (E). To evaluate cell growth, the cells were treated with 6-OAP for indicated time points and analyzed by trypan blue exclusion assay (F). […]

[1] = system: ubiquitinated cyclin B1 (Ub-cyclin B1); assay: Immunoprecipitation and Western blotting; settings: U266 and MM.1S; 24 h
Experimental: as §1, §2

cyclin B1 = assay: Western blotting; settings: U266, MM.1S and CD138+ primary cells
Experimental: as §1
(§3) Figure 3 6-OAP accumulates cyclin B1 which is required for mitotic arrest. […] After co-incubation with 6-OAP for 18 h, the cells were then harvested and detected by Leica DMI 400B microscope (D), or analyzed by flow cytometry for the cell cycle distribution (E). To evaluate cell growth, the cells were treated with 6-OAP for indicated time points and analyzed by trypan blue exclusion assay (F). […] (H) U266 cells were treated without or with 7.5 µM 6-OAP for 24 h, and stained with anti-α-tubulin and anti-BubR1 antibodies to visualize microtubules (green), BubR1 (red), and DAPI to counter stained DNA (blue), and analyzed by confocal microscopy. […]

cyclin D1 = assay: Western blotting; settings: U266 and MM1.S cells; 12 to 48 h
Experimental: as §1, §3

pCdc2 (Y15) = assay: Western blotting; settings: U266, MM.1S and CD138+ primary cells
Experimental: as §1, §3

CC=C(C)C(=O)OC1C2C(CC(C)C3C=CC(=O)C31C)OC(=O)C2C (stereo not drawn) [6-OAP, 6-O-angeloylplenolin]
effect on inhibitory effect of Dex (MM.1R cells): drastically potentiated inhibitory effect | Mad2-Cdc20 binding (Mad2 bound Cdc20): enhanced the binding affinity | ubiquitinated cyclin B1 [1]: markedly decreased | cyclin B1 level (cyclin B1): increase of cyclin B1 | cyclin D1 level (cyclin D1): down-regulated | pCdc2 (Y15) level (pCdc2 (Y15)): decrease of tyrosine-15-phosphorylated Cdc2
